Data on five compounds can be found in patent US5861404A, “2,9-disubstituted purin-6-ones” (Bayer Aktiengesellschaft, priority 1995, dated 1999).

Holding throughout (format): biochemical
Assay [1] has as its system cGMP-specific PDE V. As to the kind of experiment: Inhibition of the phosphodiesterases in vitro: PDE V. Conditions: PDE V from porcine small intestine, porcine aorta and/or human blood platelets; nucleotide 10^-6 mol/l; pH 7.5, 30 minutes. The procedure:
(§1) The cGMP-stimulatable PDE II, the cGMP-inhibitable PDE III and the cAMP-specific PDE IV were isolated from either porcine or bovine myocardium. The Ca-calmodulin-stimulatable PDE I was isolated from the porcine aorta or porcine brain. The cGMP-specific PDE V was obtained from the porcine small intestine, porcine aorta and/or human blood platelets. Purification was carried out by anion exchange chromatography over MonoQ Phaacia essentially by the method of M. Hoey and Miles D. Houslay, Biochemical Pharmacology, Vol. 40, 193-202 (1990).
(§2) The enzyme activity is determined in a test batch of 100 μl in 20 mM Tris/HCl buffer of pH 7.5 which comprises 5 mM MgCl2, 0.1 mg/ml of bovine serum albumin and either 800 Bq of ^3 HcAMP or ^3 HcGMP. The final concentration of the corresponding nucleotides is 10^-6 mol/l. The reaction is started by addition of the enzyme and the amount of enzyme is chosen such that about 50% of the substrate is reacted during the incubation time of 30 minutes. To test the cGMP-stimulatable PDE II, ^3 HcAMP is used as the substrate and 10^-6 mol/l of non-labelled cGMP is added to the batch. To test the Ca-calmodulin-dependent PDE I, 1 μM CaCl2 and 0.1 μM calmodulin are also added to the reaction batch. The reaction is stopped by addition of 100 μl of acetonitrile which comprises 1 mnM cAMP and 1 mM AMP. 100 μl of the reaction batch are separated on the HPLC column and the cleavage products are determined quantitatively "online" with a flow-through scintillation counter. The substance concentration at which the rate of reaction is reduced by 50% is measured.

The test system of assay [2] is cGMP-stimulatable PDE II. As to the kind of experiment: Inhibition of the phosphodiesterases in vitro: PDE II. The note with it: PDE II from porcine or bovine myocardium; 3H-cAMP substrate 10^-6 mol/l with 10^-6 mol/l cGMP; pH 7.5, 30 minutes. As to the method:
as §1, §2

Assay [3] deals with Ca-calmodulin-stimulatable PDE I. Description: Inhibition of the phosphodiesterases in vitro: PDE I. The note with it: PDE I from porcine aorta or porcine brain; nucleotide 10^-6 mol/l; 1 μM CaCl2, 0.1 μM calmodulin; pH 7.5, 30 minutes. The procedure: as §1, §2

Structures are written as SMILES. pIC50: −log10 of the molar value.

As a reminder, the pIC50 is the negative decadic logarithm of the IC50, by convention in mol/L. Regarding `CCCCCCC(C(C)O)n1cnc2c(=O)[nH]c(-c3ccc(Cl)cc3)nc21` (centres unmarked) [Example 5], the pIC50 in assay [1] was 4.30; in assay [2], 5.52; in assay [3] it was 5.00.
In the case of `CC(O)C(CCCc1ccccc1)n1cnc2c(=O)[nH]c(C3CCCCC3)nc21` (centres unmarked) [Example 8, 9-(2-hydroxy-6phenyl-3-hexyl)-2-cyclohexyl-purin-6one], the pIC50 is 5.70 in assay [2] and 4.40 in assay [3].
For `CC(CCCc1ccccc1)n1cnc2c(=O)[nH]c(C3CC3)nc21` (centres unmarked) [Example 14], the pIC50 in assay [1] was 6.52; in assay [2], 6.22; in assay [3], 5.40.
For the compound `CC(CCCc1ccccc1)n1cnc2c(=O)[nH]c(-c3ccc(-c4ccccc4)cc3)nc21` (centres unmarked) [Example 20], the pIC50 in assay [1] is 6.00; in assay [2], 6.40; in assay [3], 6.00.
Regarding `CC(CCCc1ccccc1)n1cnc2c(=O)[nH]c(-c3ccc4c(c3)OCO4)nc21` (centres unmarked) [Example 25], the pIC50 in assay [1] was 5.00; in assay [2], 7.00; in assay [3] it was 5.52.
